# Data: patent US8334382B2, “Substituted biaryl piperazinyl-pyridine analogues” (Neurogen Corporation, priority 2004, dated 2012)
# Target: T1, human capsaicin receptor (Homo sapiens, UniProt Q8NER1)
# T1 construct: expressed in transfected cells; host or cells: HEK293, stably transfected with pBK-CMV construct
# Assay: Calcium mobilization assay, determination of antagonist activity
# Assay type: cell-based
# Conditions: capsaicin at EC50; cells expressing human capsaicin receptor; Example 6
# Experimental: A cDNA encoding full length human capsaicin receptor (SEQ ID NO:1, 2 or 3 of U.S. Pat. No. 6,482,611) is subcloned in the plasmid pBK-CMV (Stratagene, La Jolla, Calif.) for recombinant expression in mammalian cells.
# Human embryonic kidney (HEK293) cells are transfected with the pBK-CMV expression construct encoding the full length human capsaicin receptor using standard methods. The transfected cells are selected for two weeks in media containing G418 (400 μg/ml) to obtain a pool of stably transfected cells. Independent clones are isolated from this pool by limiting dilution to obtain clonal stable cell lines for use in subsequent experiments.
# Cells transfected with expression plasmids (as described in Example 4) and thereby expressing human capsaicin receptor are seeded and grown to 70-90% confluency in FALCON black-walled, clear-bottomed 96-well plates (#3904, BECTON-DICKINSON, Franklin Lakes, N.J.). The culture medium is emptied from the 96 well plates and FLUO-3 AM calcium sensitive dye (Molecular Probes, Eugene, Oreg.) is added to each well (dye solution: 1 mg FLUO-3 AM, 440 μL DMSO and 440 μl 20% pluronic acid in DMSO, diluted 1:250 in Krebs-Ringer HEPES (KRH) buffer (25 mM HEPES, 5 mM KCl, 0.96 mM NaH2PO4, 1 mM MgSO4, 2 mM CaCl2, 5 mM glucose, 1 mM probenecid, pH 7.4), 50 μl diluted solution per well). Plates are covered with aluminum foil and incubated at 37° C. for 1-2 h in an environment containing 5% CO2. After the incubation, the dye is emptied from the plates, and the cells are washed once with KRH buffer, and resuspended in KRH buffer.
# To measure the ability of a test compound to agonize or antagonize a calcium mobilization response in cells expressing capsaicin receptors to capsaicin or other vanilloid agonist, the EC50 of the agonist capsaicin is first determined. An additional 20 μl of KRH buffer and 1 μl DMSO is added to each well of cells, prepared as described above. 100 μl capsaicin in KRH buffer is automatically transferred by the FLIPR instrument to each well. Capsaicin-induced calcium mobilization is monitored using either FLUOROSKAN ASCENT (Labsystems; Franklin, Mass.) or FLIPR (fluorometric imaging plate reader system; Molecular Devices, Sunnyvale, Calif.) instruments. Data obtained between 30 and 60 seconds after agonist application are used to generate an 8-point concentration response curve, with final capsaicin concentrations of 1 nM to 3 μM. KALEIDAGRAPH software (Synergy Software, Reading, Pa.) is used to fit the data to the equation: y=a*(1/(1+(b/x)^c)) to determine the 50% excitatory concentration (EC50) for the response. In this equation, y is the maximum fluorescence signal, x is the concentration of the agonist or antagonist (in this case, capsaicin), a is the Emax, b corresponds to the EC50 value and c is the Hill coefficient. Determination of Agonist Activity
# Test compounds are dissolved in DMSO, diluted in 20 μl KRH buffer so that the final concentration of test compounds in the assay well is between 1 μM and 5 μM, and added to cells prepared as described above. The 96 well plates containing prepared cells and test compounds are incubated in the dark, at room temperature for 0.5 to 6 h. It is important that the incubation not continue beyond 6 h. Just prior to determining the fluorescence response, 100 μl capsaicin in KRH buffer at twice the EC50 concentration determined as described above is automatically added by the FLIPR instrument to each well of the 96 well plate for a final sample volume of 200 μl and a final capsaicin concentration equal to the EC50. The final concentration of test compounds in the assay wells is between 1 μM and 5 μM. […] The concentration of antagonist required to provide a 50% decrease, relative to the response observed in the presence of capsaicin and without antagonist, is the IC50 for the antagonist, and is preferably below 1 micromolar, 100 nanomolar, 10 nanomolar or 1 nanomolar.
# T1 sequence (Q8NER1 whole entry): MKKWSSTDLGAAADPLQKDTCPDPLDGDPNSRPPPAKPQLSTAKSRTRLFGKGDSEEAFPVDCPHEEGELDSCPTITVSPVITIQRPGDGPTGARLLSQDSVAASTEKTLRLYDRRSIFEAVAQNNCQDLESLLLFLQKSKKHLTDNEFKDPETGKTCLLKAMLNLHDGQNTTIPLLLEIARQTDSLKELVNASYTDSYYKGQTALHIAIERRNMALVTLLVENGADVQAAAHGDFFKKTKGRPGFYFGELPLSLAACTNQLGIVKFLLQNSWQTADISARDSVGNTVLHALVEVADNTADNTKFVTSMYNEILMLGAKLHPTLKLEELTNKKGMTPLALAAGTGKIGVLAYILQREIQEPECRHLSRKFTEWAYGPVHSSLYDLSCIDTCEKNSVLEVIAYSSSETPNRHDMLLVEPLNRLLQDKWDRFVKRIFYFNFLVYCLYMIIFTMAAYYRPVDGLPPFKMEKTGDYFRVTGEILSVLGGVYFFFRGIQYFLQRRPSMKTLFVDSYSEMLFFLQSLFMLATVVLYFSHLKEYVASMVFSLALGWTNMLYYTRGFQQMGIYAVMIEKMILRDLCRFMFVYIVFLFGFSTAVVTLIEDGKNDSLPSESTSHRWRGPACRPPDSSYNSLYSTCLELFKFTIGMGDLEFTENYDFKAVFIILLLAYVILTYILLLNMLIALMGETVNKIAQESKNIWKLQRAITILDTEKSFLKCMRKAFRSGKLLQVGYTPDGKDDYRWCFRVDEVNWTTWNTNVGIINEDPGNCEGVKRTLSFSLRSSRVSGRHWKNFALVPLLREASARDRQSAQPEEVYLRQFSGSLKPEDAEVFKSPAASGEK
row,IC50,SMILES
1,≤ 1000 nM,"Cc1cccc(-c2cc(N3CCN(c4ncc(C(=O)O)cc4Cl)C[C@H]3C)nc(N3CCCC3C)n2)c1 (stereo partly drawn) [Example 51, 5-Chloro-6-{3-(R)-methyl-4-[2-(2-methyl-pyrrolidin-1-yl)-6-m-tolyl-pyrimidin-4-yl]-piperazin-1-yl}-nicotinic acid]"
2,≤ 1000 nM,"CC1CCCN1c1nc(-c2cncc(Cl)c2)cc(N2CCN(c3ncc(C(=O)O)cc3Cl)C[C@H]2C)n1 (stereo partly drawn) [Example 52, 5-Chloro-6-{4-[6-(5-chloro-pyridin-3-yl)-2-(2-methyl-pyrrolidin-1-yl)-pyrimidin-4-yl]-3-(R)-methyl-piperazin-1-yl}-nicotinic acid]"
3,≤ 1000 nM,"CC(C)c1cc(-c2cc(N3CCN(c4ncc(C(=O)O)cc4Cl)C[C@H]3C)nc(N3CCCC3C)n2)ccn1 (stereo partly drawn) [Example 53, 5-Chloro-6-{4-[6-(2-isopropyl-pyridin-4-yl)-2-(2-methyl-pyrrolidin-1-yl)-pyrimidin-4-yl]-3-(R)-methyl-piperazin-1-yl}-nicotinic acid]"
4,≤ 1000 nM,"CCOC(=O)c1cnc(N2CCN(c3cc(-c4ccccc4)nc(N4CCCC4C)n3)CC2)c(C)c1 (stereo not shown) [Example 54, 5-Methyl-6-{4-[2-(2-methyl-pyrrolidin-1-yl)-6-phenyl-pyrimidin-4-yl]-piperazin-1-yl}-nicotinic acid ethyl ester]"
5,≤ 1000 nM,"CCOC(=O)c1cnc(N2CCN(c3cc(-c4cccc(C)c4)nc(N4CCCC4C)n3)CC2)c(C)c1 (stereo not shown) [Example 55, 5-Methyl-6-{4-[2-(2-methyl-pyrrolidin-1-yl)-6-m-tolyl-pyrimidin-4-yl]-piperazin-1-yl}-nicotinic acid ethyl ester]"
6,≤ 1000 nM,"CCOC(=O)c1cnc(N2CCN(c3cc(-c4ccncc4)nc(N4CCCC4C)n3)CC2)c(C)c1 (stereo not shown) [Example 56, 5-Methyl-6-{4-[2-(2-methyl-pyrrolidin-1-yl)-6-pyridin-4-yl-pyrimidin-4-yl]-piperazin-1-yl}-nicotinic acid ethyl ester]"
7,≤ 1000 nM,"CCOC(=O)c1cnc(N2CCN(c3cc(-c4ccnc(C(C)C)c4)nc(N4CCCC4C)n3)CC2)c(C)c1 (stereo not shown) [Example 57, 6-{4-[6-(2-Isopropyl-pyridin-4-yl)-2-(2-methyl-pyrrolidin-1-yl)-pyrimidin-4-yl]-piperazin-1-yl}-5-methyl - nicotinic acid ethyl ester]"
8,≤ 1000 nM,"CCOC(=O)c1cnc(N2CCN(c3cc(-c4ccccc4)nc(N4CCCC4C)n3)[C@H](C)C2)c(C)c1 (stereo partly drawn) [Example 58, 5-Methyl-6-{3-(R)-methyl-4-[2-(2-methyl-pyrrolidin-1-yl)-6-phenyl-pyrimidin-4-yl]-piperazin-1-yl}-nicotinic acid ethyl ester]"
9,≤ 1000 nM,"CCOC(=O)c1cnc(N2CCN(c3cc(-c4cccc(C)c4)nc(N4CCCC4C)n3)[C@H](C)C2)c(C)c1 (stereo partly drawn) [Example 59, 5-Methyl-6-{3-(R)-methyl-4-[2-(2-methyl-pyrrolidin-1-yl)-6-m-tolyl-pyrimidin-4-yl]-piperazin-1-yl}-nicotinic acid ethyl ester]"
10,≤ 1000 nM,"CCOC(=O)c1cnc(N2CCN(c3cc(-c4ccncc4)nc(N4CCCC4C)n3)[C@H](C)C2)c(C)c1 (stereo partly drawn) [Example 60, 5-Methyl-6-{3-(R)-methyl-4-[2-(2-methyl-pyrrolidin-1-yl)-6-pyridin-4-yl-pyrimidin-4-yl] -piperazin-1-yl}-nicotinic acid ethyl ester]"
11,≤ 1000 nM,"CCOC(=O)c1cnc(N2CCN(c3cc(-c4ccnc(C(C)C)c4)nc(N4CCCC4C)n3)[C@H](C)C2)c(C)c1 (stereo partly drawn) [Example 61, 6-{4-[6-(2-Isopropyl-pyridin-4-yl)-2-(2-methyl-pyrrolidin-1-yl)-pyrimidin-4-yl]-3-(R)-methyl-piperazin-1-yl}-5-methyl-nicotinic acid ethyl ester]"
12,≤ 1000 nM,"CCOC(=O)c1cnc(N2CCN(c3cc(-c4ccc(F)cc4)nc(N(C)C)n3)[C@H](C)C2)c(C)c1 [Example 62, 6-{4-[2-Dimethylamino-6-(4-fluoro-phenyl)-pyrimidin-4-yl]-3-(R)-methyl-piperazin-1-yl}-5-methyl-nicotinic acid ethyl ester]"

# Further lines, the molecule ahead of its results:
row,SMILES,IC50
1,"CCOC(=O)c1cnc(N2CCN(c3cc(-c4ccccc4)nc(N4CCCC4C)n3)[C@H](C)C2)c(Cl)c1 (stereo partly drawn) [Example 41, 5-Chloro-6-{3-(R)-methyl-4-[2-(2-methyl-pyrrolidin-1-yl)-6-phenyl-pyrimidin-4-yl]-piperazin-1-yl}-nicotinic acid ethyl ester]",≤ 1000 nM
2,"CCOC(=O)c1cnc(N2CCN(c3cc(-c4cncc(Cl)c4)nc(N4CCCC4C)n3)[C@H](C)C2)c(Cl)c1 (stereo partly drawn) [Example 42, 5-Chloro-6-{4-[6-(5-chloro-pyridin-3-yl)-2-(2-methyl-pyrrolidin-1-yl)-pyrimidin-4-yl]-3-(R)-methyl-piperazin-1-yl}-nicotinic acid ethyl ester]",≤ 1000 nM
3,"CCOC(=O)c1cnc(N2CCN(c3cc(-c4ccnc(C(C)C)c4)nc(N4CCCC4C)n3)[C@H](C)C2)c(Cl)c1 (stereo partly drawn) [Example 43, 5-Chloro-6-{4-[6-(2-isopropyl-pyridin-4-yl)-2-(2-methyl-pyrrolidin-1-yl)-pyrimidin-4-yl]-3-(R)-methyl-piperazin-1-yl}-nicotinic acid ethyl ester]",≤ 1000 nM
4,"Cc1cc(C(N)=O)cnc1N1CCN(c2cc(-c3ccc(F)cc3)nc(N3CCCC3C)n2)[C@H](C)C1 (stereo partly drawn) [Example 44, 6-{4-[6-(4-Fluoro-phenyl)-2-(2-methyl-pyrrolidin-1-yl)-pyrimidin-4-yl]-3-(R)-methyl-piperazin-1-yl}-5-methyl-nicotinamide]",≤ 1000 nM
5,"Cc1cc(C(N)=O)cnc1N1CCN(c2cc(-c3ccc(F)cc3)nc(N3CCCC3C)n2)CC1 (stereo not shown) [Example 45, 6-{4-[6-(4-Fluoro-phenyl)-2-(2-methyl-pyrrolidin-1-yl)-pyrimidin-4-yl]-piperazin-1-yl}-5-methyl-nicotinamide]",≤ 1000 nM
6,"CCOC(=O)c1cnc(N2CCN(c3cc(-c4cccc(C)c4)nc(N4CCCC4C)n3)[C@H](C)C2)c(Cl)c1 (stereo partly drawn) [Example 46, 5-Chloro-6-{3-(R)-methyl-4-[2-(2-methyl-pyrrolidin-1-yl)-6-m-tolyl-pyrimidin-4-yl]-piperazin-1-yl}-nicotinic acid ethyl ester]",≤ 1000 nM
7,"CC1CCCN1c1nc(-c2ccccc2)cc(N2CCN(c3ncc(CO)cc3Cl)C[C@H]2C)n1 (stereo partly drawn) [Example 47, (5-Chloro-6-{3-(R)-methyl-4-[2-(2-methyl-pyrrolidin-1-yl)-6-phenyl-pyrimidin-4-yl]-piperazin-1-yl}-pyridin-3-yl)-methanol]",≤ 1000 nM
8,"Cc1cccc(-c2cc(N3CCN(c4ncc(CO)cc4Cl)C[C@H]3C)nc(N3CCCC3C)n2)c1 (stereo partly drawn) [Example 48, (5-Chloro-6-{3-(R)-methyl-4-[2-(2-methyl-pyrrolidin-1-yl)-6-m-tolyl-pyrimidin-4-yl]-piperazin-1-yl}-pyridin-3-yl)-methanol]",≤ 1000 nM
9,"CC1CCCN1c1nc(-c2cncc(Cl)c2)cc(N2CCN(c3ncc(CO)cc3Cl)C[C@H]2C)n1 (stereo partly drawn) [Example 49, (5-Chloro-6-{4-[6-(5-chloro-pyridin-3-yl)-2-(2-methyl-pyrrolidin-1-yl)-pyrimidin-4-yl]-3-(R)-methyl-piperazin-1-yl}-pyridin-3-yl)-methanol]",≤ 1000 nM
10,"CC(C)c1cc(-c2cc(N3CCN(c4ncc(CO)cc4Cl)C[C@H]3C)nc(N3CCCC3C)n2)ccn1 (stereo partly drawn) [Example 50, (5-Chloro-6-{4-[6-(2-isopropyl-pyridin-4-yl)-2-(2-methyl-pyrrolidin-1-yl)-pyrimidin-4-yl]-3-(R)-methyl-piperazin-1-yl}-pyridin-3-yl)-methanol]",≤ 1000 nM
